# Biological target: T1, HisF (cyclase subunit of imidazole glycerol phosphate synthase, IGPS) (Thermotoga maritima, UniProt Q9X0C6)
# T1 sequence (Q9X0C6 1-253): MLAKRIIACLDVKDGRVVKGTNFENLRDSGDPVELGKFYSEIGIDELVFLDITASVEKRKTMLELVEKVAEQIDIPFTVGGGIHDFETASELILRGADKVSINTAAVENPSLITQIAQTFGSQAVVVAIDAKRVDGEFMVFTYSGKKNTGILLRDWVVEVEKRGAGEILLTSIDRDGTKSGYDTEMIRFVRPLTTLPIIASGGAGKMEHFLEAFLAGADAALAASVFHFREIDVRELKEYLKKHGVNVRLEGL
# T1 sequence (Q9X0C8 1-201 partner): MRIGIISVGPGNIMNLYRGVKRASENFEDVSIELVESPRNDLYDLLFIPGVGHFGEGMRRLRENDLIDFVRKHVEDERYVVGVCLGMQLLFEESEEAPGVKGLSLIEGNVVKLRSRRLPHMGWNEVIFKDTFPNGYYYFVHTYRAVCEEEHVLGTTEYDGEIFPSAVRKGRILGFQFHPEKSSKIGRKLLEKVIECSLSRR
# Assay: 1H-15N TROSY NMR titration, global fit of chemical shift changes of […] residues
# Format: binding
compound,measurement,value
O=P(O)(O)OC[C@@H](O)[C@@H](O)c1c[nH]cn1 [IGP],Kd,500 ± 100 µM

# Source: paper PMC2918893 (Journal of biomolecular NMR, 2009)
